Laboratory results taken from patent US20040259790A1, “Methods for identifying and administering agents that bias the immune response via dendritic cells” (priority 2003, published 2004).
“Also recorded” adds a separate entry of the source. Where two headings read alike, the source gives them in different places.

Legend:
c-Fos = test: Flow cytometric evaluation of c-Fos expression in DCs; format: cell-based, human; settings: for phosphorylated c-Fos expression in DCs: flow cytometry
[1] = test system: naïve, allogeneic CD4+ CD45RA+ CD45RO− T cells; test: DC-T cell cultures: T-cell proliferation and Th1/Th2 cytokines; format: cell-based, human; settings: for IFNγ in DC-T cell culture: DCs stimulated 48 h, then 5 days with naive CD4+ T cells
p38 MAP kinase = test: MAP-kinase signaling in DCs: p38 phosphorylation; format: cell-based, human
[2] = test system: human monocyte-derived DCs; test: Cytokine production by DCs (ELISA); format: cell-based
JNK1/2 = test: MAP-kinase signaling in DCs: JNK1/2 phosphorylation (western blot); format: cell-based, human
ERK1/2 [3] = test: IL-12(p70) production by stimulated DCs with ERK1/2 inhibitor; format: cell-based, human; settings: inhibitor 1 h before stimulus
[4] = test system: OVA-specific CD8+ T cells; test: Antigen-specific CD8+ T cell responses in vivo (OT-1 adoptive transfer); parameters: species or system mice; settings: for clonal expansion of OVA-specific CD8+ T cells: i.p. with OVA257-264 50 μg, E. coli LPS 25 μg or Pam-3-cys 50 μg, day 4
[5] = test system: human monocyte-derived DCs; test: DC phenotype/maturation by flow cytometry (CD80, CD86, CD83); format: cell-based; settings: immature DCs cultured 48 h with stimulus
Protocol: Isolation and culture of human monocyte-derived DCs: CD14^+ monocytes were enriched from peripheral blood mononuclear cells (PBMCs), using an enrichment step, and cultured in six well plates (1×10^6 cells/well) for six days with recombinant Human GM-CSF at 100 ng/ml (PeproTech, NJ) and recombinant Human IL-4 at 20 ng/ml (PeproTech, NJ). At day six, the cultures consisted uniformly of CD1a^+CD14^−, HLA-DR^+ CD11c^+ cells, which were negative for CD83, the human DC maturation marker, and expressed intermediate levels of such costimulatory molecules as CD86 (Rissoan et al., Science 283:1183-1186, 1999). On day six, the immature DCs were pulsed with E. coli LPS ([…]), flagellin ([…]), Pam3cys ([…]), or SEA ([…]) for 48 hours.
DC phenotype: The phenotype of DCs was determined by flow cytometry using a Facscalibur (BD Pharmingen, CA). Briefly, gated CD1a^+CD14^−, CD11c^+ HLA-DR^+ DCs were analyzed for the expression of CD80, CD86, CD83 and CD40. All antibodies, including the PE-labeled isotype controls were purchased from BD Pharmingen (La Jolla, Calif.).
Isolation and culture of human monocyte-derived DCs: CD14^+ monocytes were enriched from peripheral blood mononuclear cells, and cultured for 6 days with recombinant human GM-CSF at 100 ng/ml (PeproTech, NJ) plus recombinant human IL-4, at 20 ng/ml (PeproTech). At day 6, the cultures consisted uniformly of CD1a^+ CD14^−, HLA-DR^+ CD11c^+ cells, which were negative for CD83. These immature DCs were pulsed with Ec.LPS (1 μg/ml), flagellin (0.5 μg/ml), Pam3cys (20 μg/ml), or SEA (100 μg/ml) for 48 h.
DC phenotype: This was determined by flow cytometry using a Facscalibur (BD Pharmingen, CA). Briefly, gated CD1a^+CD14^−, C11c+ HLA-DR^+DCs were analyzed for the expression of CD80, CD86, CD83 and CD40 (BD Pharmingen, La Jolla, Calif.).

[6] = test system: splenic CD11c+ CD11b+ and CD11c+ CD11b− DC subsets; test: Activation of splenic DC subsets in vivo
[7] = test system: OVA-specific CD4+ T cells; test: Antigen-specific CD4+ T cell responses in vivo (OT-2 adoptive transfer); parameters: species or system mice
ERK1/2 [8] = test: MAP-kinase signaling in DCs: ERK1/2 phosphorylation; format: cell-based, human; settings: 0.25, 1 and 4 h stimulation
[9] = mice injected with OVA257-264 + stimulus
[10] = very high doses, which induced high levels of CD83
[11] = mice injected with OVA323-339 + stimulus

For flagellin, the “phosphorylated c-Fos expression in DCs” value (c-Fos) was “not expressed”, the “type of Th response induced by stimulated DCs” value [1] was “typical Th1 profile” and the “phosphorylation of p38 MAP kinase in DCs” value (p38 MAP kinase) was “enhanced phosphorylation of p38 MAP kinase, which peaked at 15 minutes, and was sustained at levels well above baseline, even at 4 hours”. For the same compound, the “ratio of p38:ERK phosphorylation in DCs” value (p38 MAP kinase) was “much higher ratios of p38:ERK1/2”, the “IL-10 secreted by DCs” value [2] was “induced” and the “IL-12(p70) secreted by DCs” value [2] was “approximately 1000 pg/ml”. For the same compound, the “TNF-α secreted by DCs” value [2] was “strongly induced”, the “JNK1 phosphorylation in DCs” value (JNK1/2) was “high levels” and the “JNK 2 phosphorylation in DCs” value (JNK1/2) was “higher levels of JNK 2”. For the same compound, the “phosphorylation of JNK1 and 2 in DCs” value (JNK1/2) was “higher levels of JNK1 and 2”.
With `N#CC(=C(/N)Sc1ccccc1N)/C(C#N)=C(\N)Sc1ccccc1N` [U0126] the “IL-12(p70) production induced by Pam3cys when ERK1/2 is blocked” value (ERK1/2 [3]) was “significantly enhances IL-12(p70) production” and the “IL-12(p70) production induced by SEA when ERK1/2 is blocked” value (ERK1/2 [3]) was “did not result in consistent increases in IL-12(p70)”.
In the case of “S-[2,3-bis(palmitoyloxy)-(2-RS)-propyl]-N-palmitoyl-R-Cys-S-Ser-Lys4-OH [Pam3cys]”, the “bias of the CD8+ Tc response in vivo” value ([4]; OT-1) is reported as “shift the balance towards the Tc2 pathway”, the “ratio IFNγ: IL-4” value ([4]; OT-1, FIG. 13D) is reported as 28 and the “ratio IFNγ: IL-5” value ([4]; OT-1, FIG. 13D) is reported as 21. For the same compound, the “ratio IFNγ: IL-13” value ([4]; OT-1, FIG. 13D) was 4, the “clonal expansion of OVA-specific CD8+ T cells” value [4] was “induced clonal expansion” and the “clonal expansion of OVA-specific CD8+ T cells” value ([4]; listed as Pam-cys) was “enhanced the clonal expansion”. For the same compound, the “IFNγ in restimulated spleen cell culture” value [4, 9] was “lower levels of IFNγ”, the “IL-4, IL-5 and IL-13 in restimulated spleen cell culture” value [4, 9] was “relatively higher levels of IL-4, IL-5 and IL-13” and the “in vitro proliferative capacity of OVA-specific CD8+ T cells” value ([4]; spleen cells restimulated with OVA257-264, versus OVA257-264 alone) was “greatly enhanced responses”. The “c-Fos expression in DCs at 4 hours” value (c-Fos; 4 h of stimulation) was “maintained, even at 4 hours; also recorded: maintained even at 4 hrs”, the “phosphorylated c-Fos expression in DCs” value (c-Fos) was “expressed at significant levels” and the “total c-Fos expression (mean fluorescence intensity, fraction of cells) in DCs” value (c-Fos; peak, 2 hrs of stimulation, versus E. coli LPS or flagellin) was “much greater”. The “IL-5 in DC-T cell culture” value ([1]; Example 1, FIG. 2B) was “high levels”, the “IL-13 in DC-T cell culture” value ([1]; Example 1, FIG. 2B) was 1458 pg/mL and the “IFNγ in DC-T cell culture” value ([1]; Example 1, FIG. 2B) was “high levels”. For the same compound, the “IL-5 in DC-T cell culture” value ([1]; Example 2, FIG. 8b) was 600 pg/mL, the “IL-13 in DC-T cell culture” value ([1]; Example 2, FIG. 8b) was 600 pg/mL and the “IFNγ in DC-T cell culture” value ([1]; Example 2, FIG. 8b) was “approximately 2000 pg/ml”. The “Th1 responses induced by DCs stimulated at very high doses” value [1, 10] was “did not induce Th1 responses”, the “CD80 expression on DCs” value [5] was “also weaker” and the “CD86 expression on DCs” value [5] was “much lower levels of CD86”. The “DC maturation (maturation marker CD83)” value [5] was “weaker than that induced by E. coli LPS or flagellin; also recorded: weaker than that induced by Ec.LPS or flagellin”, the “induction of CD86 and I-Ab on splenic DC subsets” value ([6]; TLR-2 deficient (TLR2−/−) mice) was “severely impaired; also recorded: severely reduced” and the “CD86 and MHC class II (I-Ab) expression on splenic DC subsets” value ([6]; wild type mice, E. coli LPS 25 μg, Pam-3-cys 50 μg, 6 hours) was “equivalent up-regulation of CD86 and MHC class II; also recorded: upregulated CD86 and I-Ab expression”. The “bias of the CD4+ Th response in vivo” value ([7]; OT-2) was “preferential bias towards the Th2 pathway”, the “ratio IFNγ: IL-4” value ([7]; OT-2, FIG. 12D) was 40 and the “ratio IFNγ: IL-5” value ([7]; OT-2, FIG. 12D) was 18. For the same compound, the “ratio IFNγ: IL-13” value ([7]; OT-2, FIG. 12D) was 1.2, the “IL-4 and IL-5 in restimulated spleen cell culture” value ([7]; OT-2, relative to OVA323-339+E. coli LPS, p<0.01) was “relatively higher levels of IL-4 and IL-5” and the “clonal expansion of OVA-specific CD4+ Thy-1.2+ T cells in spleen” value ([7]; i.p. with OVA323-339 50 μg, E. coli LPS 25 μg or Pam-3-cys 50 μg, day 4) was “significantly enhanced the clonal expansion; also recorded: induced clonal expansion”. The “IFNγ in restimulated spleen cell culture” value [7, 11] was “much lower levels of IFNγ”, the “IL-5 in restimulated spleen cell culture” value [7, 11] was roughly 70 pg/mL and the “IL-4 in restimulated spleen cell culture” value ([7]; mice injected with OVA323-339 + stimulus, ELISA sensitivity 8 pg/ml) was roughly 30 pg/mL. For the same compound, the “in vitro proliferative capacity of OVA-specific CD4+ T cells” value ([7]; spleen cells restimulated with OVA, versus OVA323-339 alone) was “greatly enhanced responses”, the “phosphorylation of p38 MAP kinase in DCs” value (p38 MAP kinase; 0.25, 1 and 4 h stimulation, phosphorylated to total ratio, ELISA) was “rapid burst of p38 phosphorylation at 15 minutes, which rapidly declined to near baseline levels by 1 hour” and the “phosphorylation of p38 MAP kinase in DCs” value (p38 MAP kinase; 0.25, 1 and 4 h stimulation, phosphorylated to total ratio, ELISA, listed as Pam-3-cys) was “enhanced phosphorylation of p38 MAP kinase”. For the same compound, the “ERK1/2 phosphorylation in DCs” value (ERK1/2 [8]) was “much higher magnitude and duration of phosphorylation (which was sustained even at 4 hours); also recorded: much higher magnitude and duration of phosphorylation, (which was sustained even at 4 h)”, the “IL-12 induced in DCs at 10 hrs” value ([2]; 10 hrs, no inhibitor) was “did not induce any IL-12” and the “IL-12 induced in DCs at 24 hrs” value ([2]; 24 hrs, no inhibitor) was 20 to 100 pg/mL. The “IL-10 secreted by DCs” value ([2]; 48 h with stimulus, ELISA) was “induced”, the “TNF-α secreted by DCs” value ([2]; 48 h with stimulus, ELISA) was “much weaker levels” and the “IL-12(p70) secreted by DCs” value ([2]; 48 h with stimulus, doses giving equivalent IL-6, ELISA) was “little or no IL-12(p70)”. The “IL-12(p70) secreted by DCs at very high doses of stimulus” value [2, 10] was “did not induce IL-12(p70)” and the “JNK1 phosphorylation in DCs” value (JNK1/2; Example 2, FIG. 9c, western blot) was “very weak”.
